Measurements: patent US9321764B2, “Dihydro-pyrrolopyridinone inhibitors” (AbbVie Inc., priority 2013, dated 2016)
Where two headings read alike, the source gives them in different places.

Legend:
[1] = system: breast cancer cell line MX-1; experiment: MX-1 cell line proliferation assay; type: cell-based; conditions: MX-1 cells, 3-day proliferation assay, Cell Titer Glo, read-out: Cellular proliferation EC50
Method: The impact of compounds of the Examples on cancer cell proliferation was determined using the breast cancer cell line MX-1 (ATCC) in a 3-day proliferation assay and the data are reported in Table 1. MX-1 cells were maintained in RPMI 1640 medium (Sigma) supplemented with 10% FBS at 37° C. and an atmosphere of 5% CO2. For compound testing, MX-1 cells were plated in 96-well black bottom plates at a density of 5000 cells/well in 90 μL of culture media and incubated at 37° overnight to allow cell adhesion and spreading. Compound dilution series were prepared in DMSO via a 3-fold serial dilution from 3 mM to 0.1 μM. The DMSO dilution series were then diluted 1:100 in phosphate buffered saline, and 10 μL of the resulted solution were added to the appropriate wells of the MX-1 cell plate. The final compound concentrations in the wells were 3, 1, 0.3, 0.1, 0.03, 0.01, 0.003, 0.001, 0.0003 and 0.0001 μM.
Luminescence readings from the Cell Titer Glo assay were normalized to the DMSO treated cells and analyzed using the GraphPad Prism software with sigmoidal curve fitting to obtain EC50s. The minimum significant ratio (MSR) was determined to evaluate assay reproducibility (Eastwood et al., (2006) J Biomol Screen, 11: 253-261).

BRD4 (BDI_K57-E168) = biological target: T1, BRD4 (BDI_K57-E168) (Homo sapiens, UniProt O60885); experiment: TR-FRET bromodomain binding assay, first bromodomain of BRD4; conditions: His-tagged BD1, 100 nM Alexa647 probe; TR-FRET protocol A-E given per row
T1 construct: BD1: amino acids K57-E168; made in house
Outline: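 Ki values come from IC50s (4-parameter logistic) corrected for probe Kd and concentration, normalised to no-compound and 1 μM unlabelled probe controls. Probe displacement by TR-FRET used 8 nM BD1 (K57-E168), 100 nM Alexa647 probe, 1 nM Eu-anti-His, 20 mM phosphate pH 6.0, 2% DMSO, 1 h, room temperature.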

BRD4 (BDII_E352-M457) = biological target: T2, BRD4 (BDII_E352-M457) (Homo sapiens, UniProt O60885); experiment: TR-FRET bromodomain binding assay, second bromodomain of BRD4; conditions: His-tagged BD2, 30 nM Alexa647 probe; TR-FRET protocol A-E given per row
T2 construct: proliferation; Protocol; made in house
Outline: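 His-tagged BRD4 BD2 ([…]) competed against an Alexa647-labelled BET-inhibitor probe in TR-FRET. Buffer was 20 mM sodium phosphate pH 6.0, 50 mM NaCl, 1 mM EDTA, 0.01% Triton X-100, 1 mM DTT, with method D DMSO series of 2.5 mM–800 nM (stock range). IC50 from 4-parameter fit, Ki from probe Kd and concentration.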

EC50 ([1]; Homo sapiens, MX1, 72 h) [nM]	Ki (BRD4 (BDI_K57-E168)) [nM]	Ki (BRD4 (BDII_E352-M457)) [nM]	EC50 [1] [nM]	SMILES
398	21	87	–	Cn1cc(-c2cc(S(C)(=O)=O)ccc2OCC2CCOCC2)c2cc[nH]c(=O)c21 [Example 31, 1-methyl-3-[5-(methylsulfonyl)-2-(tetrahydro-2H-pyran-4-ylmethoxy)phenyl]-1,6-dihydro-7H-pyrrolo[2,3-c]pyridin-7-one]
33	1.6	6.4	–	CCS(=O)(=O)Nc1ccc(OC2CCC(F)(F)CC2)c(-c2cn(C)c3c(=O)[nH]ccc23)c1 [Example 8, N-{4[(4,4-difluorocyclohexyl)oxy]-3-(1-methyl-7-oxo-6,7-dihydro-1H-pyrrolo[2,3-c]pyridin-3-yl)phenyl}ethanesulfonamide]
> 3000	133	248	–	COc1cccc(CNc2ccc(Oc3ccc(F)cc3F)c(-c3cn(C)c4c(=O)[nH]ccc34)c2)c1OCc1ccccc1 [Example 177, 3-[5-{[2-(benzyloxy)-3-methoxybenzyl]amino}-2-(2,4-difluorophenoxy)phenyl]-1-methyl-1,6-dihydro-7H-pyrrolo[2,3-c]pyridin-7-one]
289	42.3	101	–	Cn1cc(-c2cc(NCc3cn4c(n3)CCC4)ccc2Oc2ccc(F)cc2F)c2cc[nH]c(=O)c21 [Example 176, 3-{2-(2,4-difluorophenoxy)-5-[(6,7-dihydro-5H-pyrrolo[1,2-a]imidazol-2-ylmethyl)amino]phenyl}-1-methyl-1,6-dihydro-7H-pyrrolo[2,3-c]pyridin-7-one]
1630	583	506	–	CN(C)C1CCN(Cc2ccc(Oc3ccc(F)cc3F)c(-c3cn(C)c4c(=O)[nH]ccc34)c2)CC1 [Example 113, 3-[2-(2,4-difluorophenoxy)-5-{[4-(dimethylamino)piperidin-1-yl]methyl}phenyl]-1-methyl-1,6-dihydro-7H-pyrrolo[2,3-c]pyridin-7-one]
713	908	337	–	Cn1cc(-c2cc(CN3CCC(N)CC3)ccc2Oc2ccc(F)cc2F)c2cc[nH]c(=O)c21 [Example 111, 3-{5-[(4-aminopiperidin-1-yl)methyl]-2-(2,4-difluorophenoxy)phenyl}-1-methyl-1,6-dihydro-7H-pyrrolo[2,3-c]pyridin-7-one]
> 3000	1410	1200	–	Cn1cc(-c2cc(CNCCC(C)(C)C)ccc2Oc2ccc(F)cc2F)c2cc[nH]c(=O)c21 [Example 114, 3-[2-(2,4-difluorophenoxy)-5-{[(3,3-dimethylbutyl)amino]methyl}phenyl]-1-methyl-1,6-dihydro-7H-pyrrolo[2,3-c]pyridin-7-one]
–	14	37	66	CCS(=O)(=O)C(C)c1ccc(Oc2ccc(F)cc2F)c(-c2cn(C)c3c(=O)[nH]ccc23)c1 (single isomer, unassigned) [Example 57]
136	173	213	–	Cn1cc(-c2cc(NS(C)(=O)=O)c(Oc3ccc(F)cc3F)cc2Oc2ccc(F)cc2F)c2cc[nH]c(=O)c21 [Example 13, N-[2,4-bis(2,4-difluorophenoxy)-5-(1-methyl-7-oxo-6,7-dihydro-1H-pyrrolo[2,3-c]pyridin-3-yl)phenyl]methanesulfonamide]
980	64	495	–	Cn1cc(-c2cc(CNS(=O)(=O)c3ccccc3)ccc2Oc2ccc(F)cc2F)c2cc[nH]c(=O)c21 [Example 141, N-[4-(2,4-difluorophenoxy)-3-(1-methyl-7-oxo-6,7-dihydro-1H-pyrrolo[2,3-c]pyridin-3-yl)benzyl]benzenesulfonamide]
82	2.01	3.85	–	CCS(=O)(=O)Nc1ccc(Oc2ccc(F)cc2F)c(-c2cn(C)c3c(=O)[nH]c(C(=O)NCCCO)cc23)c1 [Example 190, 3-{2-(2,4-difluorophenoxy)-5-[(ethylsulfonyl)amino]phenyl}-N-(3-hydroxypropyl)-1-methyl-7-oxo-6,7-dihydro-1H-pyrrolo[2,3-c]pyridine-5-carboxamide]
1020	216	1100	–	Cn1cc(-c2cc(NCc3ccc(OCc4ccccc4)cc3)ccc2Oc2ccc(F)cc2F)c2cc[nH]c(=O)c21 [Example 170, 3-[5-{[4-(benzyloxy)benzyl]amino}-2-(2,4-difluorophenoxy)phenyl]-1-methyl-1,6-dihydro-7H-pyrrolo[2,3-c]pyridin-7-one]
398	158	81	–	Cn1cc(-c2cc(S(=O)(=O)N3CCc4ccccc43)ccc2OCC2CC2)c2cc[nH]c(=O)c21 [Example 97, 3-[2-(cyclopropylmethoxy)-5-(2,3-dihydro-1H-indol-1-ylsulfonyl)phenyl]-1-methyl-1,6-dihydro-7H-pyrrolo[2,3-c]pyridin-7-one]
> 3000	72	107	–	Cn1cc(-c2cc(CS(=O)(=O)Nc3nccs3)ccc2Oc2ccc(F)cc2F)c2cc[nH]c(=O)c21 [Example 104, 1-[4-(2,4-difluorophenoxy)-3-(1-methyl-7-oxo-6,7-dihydro-1H-pyrrolo[2,3-c]pyridin-3-yl)phenyl]-N-(1,3-thiazol-2-yl)methanesulfonamide]
> 3000	45	312	–	Cn1cc(-c2cc(S(C)(=O)=O)ccc2OCC2COC2)c2cc[nH]c(=O)c21 [Example 30, 1-methyl-3-[5-(methylsulfonyl)-2-(oxetan-3-ylmethoxy)phenyl]-1,6-dihydro-7H-pyrrolo[2,3-c]pyridin-7-one]
267	69	92	–	Cn1cc(-c2cc(S(=O)(=O)N3CC(F)(F)C3)ccc2OCC2CC2)c2cc[nH]c(=O)c21 [Example 125, 3-{2-(cyclopropylmethoxy)-5-[(3,3-difluoroazetidin-1-yl)sulfonyl]phenyl}-1-methyl-1,6-dihydro-7H-pyrrolo[2,3-c]pyridin-7-one]
162	10.4	12.7	–	CCS(=O)(=O)Nc1ccc(Oc2ccc(F)cc2F)c(-c2cn(C)c3c(=O)[nH]c(C(=O)NCC4CCCC4)cc23)c1 [Example 195, N-(cyclopentylmethyl)-3-{2-(2,4-difluorophenoxy)-5-[(ethylsulfonyl)amino]phenyl}-1-methyl-7-oxo-6,7-dihydro-1H-pyrrolo[2,3-c]pyridine-5-c arboxamide]
338	32.8	156	–	Cn1cc(-c2cc(NCc3ccc(C#N)cc3)ccc2Oc2ccc(F)cc2F)c2cc[nH]c(=O)c21 [Example 167, 4-({[4-(2,4-difluorophenoxy)-3-(1-methyl-7-oxo-6,7-dihydro-1H-pyrrolo[2,3-c]pyridin-3-yl)phenyl]amino}methyl)benzonitrile]
403	63	406	–	Cn1cc(-c2cc(S(C)(=O)=O)ccc2OCC2CCC(F)(F)CC2)c2cc[nH]c(=O)c21 [Example 41, 3-{2-[(4,4-difluorocyclohexyl)methoxy]-5-(methylsulfonyl)phenyl}-1-methyl-1,6-dihydro-7H-pyrrolo[2,3-c]pyridin-7-one]
> 3000	247	1150	–	COc1ccccc1S(=O)(=O)NCc1ccc(Oc2ccc(F)cc2F)c(-c2cn(C)c3c(=O)[nH]ccc23)c1 [Example 130, N-[4-(2,4-difluorophenoxy)-3-(1-methyl-7-oxo-6,7-dihydro-1H-pyrrolo[2,3-c]pyridin-3-yl)benzyl]-2-methoxybenzenesulfonamide]
> 3000	1490	654	–	Cn1cc(-c2cc(CNCCC3CCCC3)ccc2Oc2ccc(F)cc2F)c2cc[nH]c(=O)c21 [Example 128, 3-[5-{[(2-cyclopentylethyl)amino]methyl}-2-(2,4-difluorophenoxy)phenyl]-1-methyl-1,6-dihydro-7H-pyrrolo[2,3-c]pyridin-7-one]
256	13	117	–	Cn1cc(-c2cc(S(C)(=O)=O)ccc2OCC2CCOC2)c2cc[nH]c(=O)c21 (stereo not drawn) [Example 23, 1-methyl-3-[5-(methylsulfonyl)-2-(tetrahydrofuran-3-ylmethoxy)phenyl]-1,6-dihydro-7H-pyrrolo[2,3-c]pyridin-7-one]
